Results: patent US10857105B2, “Compounds and compositions for intracellular delivery of therapeutic agents” (ModernaTX, Inc., priority 2017, dated 2020)

Tests used:
modified luciferase = test: Luciferase expression in liver, lung, spleen and femur 6 hours after intravenous administration to mice; type: in vivo; settings: 6 hours after intravenous 0.5 mpk, mice
Summary of the method: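 Nanoparticle formulations of the modified luciferase were given intravenously to mice (n=3) at 0.5 mpk. Bioluminescence was measured after 6 hours as total light flux. Standard MC3 formulation and PBS run as controls.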

luciferase (Luc) mRNA [1] = test: Luciferase expression after intramuscular administration to mice; type: in vivo; settings: intramuscular; for Novel lipid/MC3 expression ratio, i.m. Luc: luciferase, 6 hr. time point, relative to MC3 formulation; for Total flux 6 hours after intramuscular administration, 0.01 mpk Dose: Luc mRNA
From the text: The numbers 1-7 in this figure correspond to MC3, Compounds 168-170, and 173-175 respectively.
FIGS. 18A and 18B show the results of luciferase expression measured upon intramuscular administration of various nanoparticle compositions to CD-1 mice at 0.01 mpk. FIG. 18A is a bar graph showing total flux at 6 hr after administration. The numbers above each bar indicate the expression ratio relative to MC3. […] Numbers 1-11 in the Figures refer to compositions containing the following: 1: MC3, 2: Compound 143, 3: Compound 49; 4: Compound 113; 5: Compound 61; 6: Compound 72; 7: Compound 75; 8: Compound 71; 9: Compound 128; 10: Compound 156; 11: Compound 157.
The numbers 1-9 in this figure correspond to MC3, and Compounds 178, 181, 182, 218, 198, 200, 233, and 239, respectively.
The total flux (measured by area under the curve, AUC) induced by administration of a formulation including a given lipid relative to that induced by administration of a formulation including MC3 was also measured for several lipids.
Sample formulations including modified luciferase (Luc) mRNA prepared and administered intramuscularly and the resulting expression and immunogenicity were evaluated simultaneously. Formulations including compounds according to Formula (I), (IA), (IB), (II), (IIa), (IIb), (IIc), (IId), (IIe), (IIf), (IIg), or (III) were prepared and administered at dose of and 0.01 mpk.

[2] = Particle size and polydispersity index of nanoparticle compositions (Zetasizer Nano ZS); type: physicochemical
Summary of the method: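 Size and PDI measured by Zetasizer Nano ZS in 1×PBS (zeta potential in 15 mM PBS). Lipid nanoparticles contained test ionizable lipid:DSPC:cholesterol:PEG-DMG at 50:10:38.5:1.5 mol % with N1-methyl-pseudouridine mRNA encoding luciferase or hEPO.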

[3] = Encapsulation efficiency of RNA in nanoparticle compositions (RIBOGREEN assay); type: physicochemical
Summary of the method: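 Lipid nanoparticles (ionisable lipid:DSPC:cholesterol:PEG-DMG 50:10:38.5:1.5 mol %) carrying N1-methylpseudouridine luciferase or hEPO mRNA diluted to about 5 μg/mL in TE, pH 7.5, with or without 2% Triton X-100, 15 min at 37° C. RiboGreen fluorescence (ex ~480, em ~520 nm) blank-subtracted; free RNA = intact/disrupted signal.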

IL-6, IP-10 = test: Cytokine induction (IL-6, IP-10) in mice 6 hours after intravenous administration; type: in vivo; parameters: unit not given here; settings: intravenous 0.5 mpk
From the text: The introduction of foreign material into a mammalian body induces an innate immune response that promotes cytokine production. Such immune responses to, for example, nanoparticle compositions including therapeutic and/or prophylactics, are undesirable. The induction of certain cytokines is thus measured to evaluate the […] of nanoparticle compositions. The concentrations of various cytokines in mice upon intravenous administration of nanoparticle compositions presented in Table 1A at a dosage of 0.5 mpk was measured at 6 hours. The standard MC3 formulation and a PBS control were also tested. As is evident in Table 7, IL-6 induction was highest for compositions including Compounds 1, 3, 9, 19, and 26, while IP-10 induction was highest for compositions including Compounds 3, 4, 7, 20, and 26. IL-6 induction was lowest for compositions including Compounds 4, 11, 12, and 28. IP-10 induction was lowest for compositions including Compounds 10, 11, 12, 13, 15, 17, and 18.

luciferase (Luc) mRNA [4] = test: Luciferase expression (whole body bioluminescence) after intravenous administration to mice; type: in vivo; settings: for Novel lipid/MC3 expression ratio, i.v.: intravenous, luciferase, 6 hr. time point, relative to MC3 formulation; for AUC: intravenous administration (Table 3D)
Summary of the method: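 Mice (n=6) received lipid nanoparticle formulations carrying luciferase mRNA intravenously at 0.5 mg/kg. Whole-body bioluminescence was measured at 3, 6 and 24 h. Total flux was taken as area under the curve and expressed relative to a standard MC3 formulation.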

[5] = Table 1A, lipid:DSPC:cholesterol:PEG-DMG 50:10:38.5:1.5 mol %
[6] = Table 1E, compositions for subcutaneous administration
[7] = Table 1B, formulated with hEPO mRNA

| Structure (SMILES) | Size [2, 5] [nm] | EE [3, 5] [%] | Cytokine induction, IL-6 (IL-6, IP-10) | Cytokine induction, IP-10 (IL-6, IP-10) | Size [2, 6] [nm] | Size [2, 7] [nm] | EE [3, 7] [%] | Total Flux, Liver (modified luciferase) | Total Flux, Lung (modified luciferase) | Total Flux, Spleen (modified luciferase) | Novel lipid/MC3 expression ratio, i.m. Luc (luciferase (Luc) mRNA [1]) | Novel lipid/MC3 expression ratio, i.v. (luciferase (Luc) mRNA [4]) | Total flux 6 hours after intramuscular administration, 0.01 mpk Dose (luciferase (Luc) mRNA [1]) [p/s] | AUC (luciferase (Luc) mRNA [4]) [p/s*h] |
| --- | --- | --- | --- | --- | --- | --- | --- | --- | --- | --- | --- | --- | --- | --- |
| CCCCCCCCCOC(=O)CCCCCCCN(CCO)CCCCCCCCCC(=O)OC(CCCCCCCC)CCCCCCCC [Compound 23, Heptadecan-9-yl 10-((2-hydroxyethyl)(8-(nonyloxy)-8-oxooctyl)amino) decanoate] | 104.5 | 92.68 | 94.00 | 1015.95 | 70.5 | – | – | – | – | – | 0.30 | 0.04 | – | – |
| CCCCCCCCC(CCCCCCCC)OC(=O)CCCCCCCN(CCO)CCCC(=O)OC(CCCCC)CCCCCCCC (stereo not drawn) [Compound 71, Heptadecan-9-yl 8-((2-hydroxyethyl)(4-oxo-4-(tetradecan-6-yloxy)butyl)amino)octanoate] | 71 | 97.54 | – | – | – | – | – | 7.93E+08 | 4.86E+06 | 8.04E+06 | 0.08 | 0.42 | – | – |
| CCCCCCCCCOC(=O)CCCCCCCN(CCCCCCCC(=O)OC(CCCCCCCC)CCCCCCCC)C(C)CO (stereo not drawn) [Compound 157, Heptadecan-9-yl 8-((1-hydroxypropan-2-yl)(8-(nonyloxy)-8-oxooctyl)amino)octanoate] | 61 | 96.04 | – | – | – | – | – | 2.27E+09 | 6.70E+06 | 5.15E+07 | 0.79 | – | – | 2.481E+011 |
| CCCCCCCCCOC(=O)CCCCCCCN(CCCCCCCC(=O)OC(CCCCCCCC)CCCCCCCC)CCCN/C(=C/[N+](=O)[O-])NC [Compound 170, Heptadecan-9-yl (E)-8-((3-((1-(methylamino)-2-nitrovinyl)amino)propyl)(8-(nonyloxy)-8-oxooctyl)amino)octanoate] | 96.0 | – | – | – | – | – | – | – | – | – | 5.3 | 0.02 | – | – |
| CCCCCCCCCOC(=O)CCCCCCCN(CCCCCCCC(=O)OC(CCCCCCCC)CCCCCCCC)CCCNc1c(NC)c(=O)c1=O [Compound 182, Heptadecan-9-yl 8-((3-((2-(methylamino)-3,4-dioxocyclobut-1-en-1-yl)amino)propyl)(8-(nonyloxy)-8-oxooctyl)amino)octanoate] | 84.4 | 99.0 | – | – | – | – | – | – | – | – | 6.80 | 0.66 | – | – |

More lines, main results first:

| Size [2, 5] [nm] | EE [3, 5] [%] | Cytokine induction, IL-6 (IL-6, IP-10) | Cytokine induction, IP-10 (IL-6, IP-10) | Size [2, 6] [nm] | Size [2, 7] [nm] | EE [3, 7] [%] | Structure (SMILES) | Total Flux, Liver (modified luciferase) | Total Flux, Lung (modified luciferase) | Total Flux, Spleen (modified luciferase) | Novel lipid/MC3 expression ratio, i.m. Luc (luciferase (Luc) mRNA [1]) | Novel lipid/MC3 expression ratio, i.v. (luciferase (Luc) mRNA [4]) | Total flux 6 hours after intramuscular administration, 0.01 mpk Dose (luciferase (Luc) mRNA [1]) [p/s] | AUC (luciferase (Luc) mRNA [4]) [p/s*h] |
| --- | --- | --- | --- | --- | --- | --- | --- | --- | --- | --- | --- | --- | --- | --- |
| 118.9 | 86.10 | 116.35 | 4959.16 | – | – | – | CCCCCCCCCN(CCCO)CCCCCCCC(=O)OC(CCCCCCCC)CCCCCCCC [Compound 7, Heptadecan-9-yl 8-((3-hydroxypropyl)(nonyl)amino)octanoate] | 2.49E+09 | 3.95E+07 | 4.83E+08 | 1.10 | 0.88 | – | – |
| 77.2 | – | – | – | 71.8 | – | – | CCCCCCCCCOC(=O)CCCCCCCN(CCCCCCCC(=O)OC(CCCCCCCC)CCCCCCCC)CC(O)CO (stereo not drawn) [Compound 69, Heptadecan-9-yl 8-((2,3-dihydroxypropyl)(8-(nonyloxy)-8-oxooctyl)amino)octanoate] | 2.24E+08 | 7.34E+05 | 2.54E+06 | 0.27 | 0.30 | 8.83E+06 | – |
| 81.1 | – | – | – | 67.0 | 75 | 98.29 | CCCCCCCCCOC(=O)CCCCCCCN(CCCCCCCC(=O)OC(CCCCCCCC)CCCCCCCC)CCCNS(C)(=O)=O [Compound 109, Heptadecan-9-yl 8-((3-(methylsulfonamido)propyl)(8-(nonyloxy)-8-oxooctyl)amino)octanoate] | 8.17E+08 | 6.03E+06 | 4.81E+07 | – | 0.35 | 1.18E+08 | – |
| 68.1 | – | – | – | – | – | – | CCCCCCCCCOC(=O)CCCCCCCN(CCCCCCCC(=O)OC(CCCCCCCC)CCCCCCCC)C(CO)CO [Compound 156, Heptadecan-9-yl 8-((1,3-dihydroxypropan-2-yl)(8-(nonyloxy)-8-oxooctyl)amino)octanoate] | 6.51E+08 | 1.92E+06 | 1.82E+07 | 0.06 | 0.60 | – | 1.170E+011 |
| 87.4 | – | – | – | – | – | – | CCCCCCCCCOC(=O)CCCCCCCN(CCCCCCCC(=O)OC(CCCCCCCC)CCCCCCCC)CCCNc1c(N(C)C)c(=O)c1=O [Compound 169, Heptadecan-9-yl 8-((3-((2-(dimethylamino)-3,4-dioxocyclobut-1-en-1-yl)amino)propyl)(8-(nonyloxy)-8-oxooctyl)amino)octanoate] | – | – | – | 3.3 | 0.11 | – | – |
| 78.7 | 88.9 | – | – | – | – | – | CCCCCCCCCOC(=O)CCCCCCCN(CCCCCCCC(=O)OC(CCCCCCCC)CCCCCCCC)CCCNC(=O)OC [Compound 181, Heptadecan-9-yl 8-((3-((methoxycarbonyl)amino)propyl)(8-(nonyloxy)-8-oxooctyl)amino)octanoate] | – | – | – | 0.97 | 0.27 | – | – |
| 84.2 | 99.5 | – | – | – | – | – | CCCCCCCCCOC(=O)CCCCCCCN(CCCCCCCC(=O)OC(CCCCCCCC)CCCCCCCC)CCCNC(=O)CO [Compound 198, Heptadecan-9-yl 8-((3-(2-hydroxyacetamido)propyl)(8-(nonyloxy)-8-oxooctyl)amino)octanoate] | – | – | – | 0.52 | 0 | – | – |
